# T1: JtRdhA (reductive dehalogenase) (Jhaorihella thermophila, UniProt A0A1H5TYU2)
# T1 construct: gene SAMN05421751_103106; full-length, N-terminal His-MBP-TEV fusion (JtRdhA^MBP), WP_104007082
# T1 sequence (A0A1H5TYU2 1-1069): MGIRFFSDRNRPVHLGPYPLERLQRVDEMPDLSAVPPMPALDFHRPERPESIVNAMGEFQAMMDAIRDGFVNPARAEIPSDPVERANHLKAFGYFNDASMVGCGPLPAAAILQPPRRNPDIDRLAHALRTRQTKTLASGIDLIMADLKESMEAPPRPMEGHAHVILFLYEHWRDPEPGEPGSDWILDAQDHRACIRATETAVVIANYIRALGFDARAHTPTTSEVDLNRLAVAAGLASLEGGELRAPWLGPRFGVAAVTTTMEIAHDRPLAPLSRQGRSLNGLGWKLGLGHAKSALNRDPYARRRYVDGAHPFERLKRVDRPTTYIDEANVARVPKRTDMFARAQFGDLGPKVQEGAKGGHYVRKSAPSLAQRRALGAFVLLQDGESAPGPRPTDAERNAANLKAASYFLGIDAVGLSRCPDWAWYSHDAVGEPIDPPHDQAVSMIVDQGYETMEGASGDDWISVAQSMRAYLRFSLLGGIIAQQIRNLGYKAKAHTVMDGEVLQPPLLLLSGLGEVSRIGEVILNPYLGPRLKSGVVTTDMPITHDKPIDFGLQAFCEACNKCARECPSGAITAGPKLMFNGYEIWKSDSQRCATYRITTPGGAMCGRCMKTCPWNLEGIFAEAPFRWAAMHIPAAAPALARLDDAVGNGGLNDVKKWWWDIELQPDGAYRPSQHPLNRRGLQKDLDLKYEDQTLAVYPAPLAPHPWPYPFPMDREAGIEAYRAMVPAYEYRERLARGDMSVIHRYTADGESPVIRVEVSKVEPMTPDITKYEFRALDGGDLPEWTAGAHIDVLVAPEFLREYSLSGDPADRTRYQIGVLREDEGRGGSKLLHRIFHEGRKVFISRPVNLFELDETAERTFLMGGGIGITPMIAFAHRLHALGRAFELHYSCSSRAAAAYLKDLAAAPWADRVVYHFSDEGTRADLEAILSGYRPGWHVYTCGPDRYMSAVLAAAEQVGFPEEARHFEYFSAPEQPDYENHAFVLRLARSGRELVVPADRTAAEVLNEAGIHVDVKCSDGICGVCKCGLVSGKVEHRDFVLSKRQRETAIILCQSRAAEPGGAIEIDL
# B1: JtRdhA (reductive dehalogenase) (Jhaorihella thermophila) (protein)
# chain: MGIRFFSDRNRPVHLGPYPLERLQRVDEMPDLSAVPPMPALDFHRPERPESIVNAMGEFQAMMDAIRDGFVNPARAEIPSDPVERANHLKAFGYFNDASMVGCGPLPAAAILQPPRRNPDIDRLAHALRTRQTKTLASGIDLIMADLKESMEAPPRPMEGHAHVILFLYEHWRDPEPGEPGSDWILDAQDHRACIRATETAVVIANYIRALGFDARAHTPTTSEVDLNRLAVAAGLASLEGGELRAPWLGPRFGVAAVTTTMEIAHDRPLAPLSRQGRSLNGLGWKLGLGHAKSALNRDPYARRRYVDGAHPFERLKRVDRPTTYIDEANVARVPKRTDMFARAQFGDLGPKVQEGAKGGHYVRKSAPSLAQRRALGAFVLLQDGESAPGPRPTDAERNAANLKAASYFLGIDAVGLSRCPDWAWYSHDAVGEPIDPPHDQAVSMIVDQGYETMEGASGDDWISVAQSMRAYLRFSLLGGIIAQQIRNLGYKAKAHTVMDGEVLQPPLLLLSGLGEVSRIGEVILNPYLGPRLKSGVVTTDMPITHDKPIDFGLQAFCEACNKCARECPSGAITAGPKLMFNGYEIWKSDSQRCATYRITTPGGAMCGRCMKTCPWNLEGIFAEAPFRWAAMHIPAAAPALARLDDAVGNGGLNDVKKWWWDIELQPDGAYRPSQHPLNRRGLQKDLDLKYEDQTLAVYPAPLAPHPWPYPFPMDREAGIEAYRAMVPAYEYRERLARGDMSVIHRYTADGESPVIRVEVSKVEPMTPDITKYEFRALDGGDLPEWTAGAHIDVLVAPEFLREYSLSGDPADRTRYQIGVLREDEGRGGSKLLHRIFHEGRKVFISRPVNLFELDETAERTFLMGGGIGITPMIAFAHRLHALGRAFELHYSCSSRAAAAYLKDLAAAPWADRVVYHFSDEGTRADLEAILSGYRPGWHVYTCGPDRYMSAVLAAAEQVGFPEEARHFEYFSAPEQPDYENHAFVLRLARSGRELVVPADRTAAEVLNEAGIHVDVKCSDGICGVCKCGLVSGKVEHRDFVLSKRQRETAIILCQSRAAEPGGAIEIDL
# notes: full-length, N-terminal His-MBP-TEV fusion (JtRdhA^MBP), WP_104007082
# Assays:
# [1] = target: T1, JtRdhA (reductive dehalogenase); assay: substrate turnover by purified enzyme, NADPH consumption and HPLC; type: biochemical
# [2] = target: T1, JtRdhA (reductive dehalogenase); assay: biphasic turnover assay, LC-MS of debrominated products; type: biochemical
# [3] = target: T1, JtRdhA (reductive dehalogenase); assay: NADPH consumption assay, Dixon plot vs 35-DB-4-OH; type: biochemical
# [4] = substrate: O=C(O)c1ccc(O)c(Br)c1; assay: steady-state kinetics by NADPH consumption (KM), purified enzyme; type: biochemical, Jhaorihella thermophila; settings: cobalamin, 2x [4Fe-4S], [2Fe-2S], FMN
# [5] = substrate: O=C(O)c1cc(Br)c(O)c(Br)c1; assay: EPR of cob(II)alamin with substrate (Br superhyperfine coupling); KM from steady-state NADPH oxidation; type: biochemical, Jhaorihella thermophila; settings: cobalamin, 2x [4Fe-4S], [2Fe-2S], FMN active site; displaces chloride, substrate bromine atoms less than […] Å from the Co2+ ion
molecule,measurement,setting,value
O=C(O)Cc1ccc(O)c(Br)c1 [3-bromo-4-hydroxyphenylacetic acid],NADPH consumption μM min^-1,[1],147 ± 3 µM/min
"Oc1ccccc1I [2-Iodophenol, 2-iodophenol]",NADPH consumption μM min^-1,[1],106 ± 3 µM/min
"O=C(O)c1cc(I)c(O)c(I)c1 [3,5 Diiodo-4-hydroxybenzoic acid]",NADPH consumption μM min^-1,[1],124 ± 8 µM/min
"CC(C)(c1cc(Br)c(O)c(Br)c1)c1cc(Br)c(O)c(Br)c1 [compound 1, tetrabromobisphenol A]","biphasic turnover assay, LC-MS of debrominated products",[2],one of the most commonly used flame retardants TBBPA was determined to be a substrate for JtRdhA^MBP
"O=C(O)c1cc(Cl)c(O)c(Cl)c1 [35-DC-4-OH, 3,5-dichloro-4-hydroxybenzoic acid]",Ki,[3],13.7 ± 3.6 µM
B1,Km,[4],21 ± 0.2 µM
same,Km,[5],19 ± 0.7 µM

# From PMC10463259, “Efficient NADPH-dependent dehalogenation afforded by a self-sufficient reductive dehalogenase” (The Journal of Biological Chemistry, 2023)
